Reference: patent publication US20250281509A1, “SEQUENTIAL HORMONE THERAPY TO IMPROVE SURVIVAL AND ENHANCE RESPONSE TO IMMUNE THERAPY IN MEN WITH PROSTATE CANCER” (The Johns Hopkins University, priority 2021, published 2025)
Where “and” joins values, the source holds several entries; their conditions need not be identical. Equal entries are not always repeated. Where two headings read alike, the source gives them in different places.

Key:
CRPC [1] = assay: RESTORE Phase II study (NCT02090114); type: in vivo, human; conditions: re-challenge with the agent patients progressed on before BAT
From the text: The RESTORE study (NCT02090114) was an NIH sponsored Phase II study designed to assess the safety and efficacy of BAT in men (n=30 per cohort) with CRPC progressing on enzalutamide (Cohort A) or abiraterone (Cohort B), FIG. 6A. Shah et al., 2004. The primary endpoint of the first part of the study was to assess PSA response to BAT. Secondary endpoints included objective response, safety, and quality of life. The second part of the study was to determine in BAT could re-sensitize patients to repeat exposure to second line therapy that patients were progressing on prior to receiving BAT. Thus, patients progressing on enzalutamide were re-exposed to enzalutamide after BAT and similarly for abiraterone. Both arms of this study met the primary endpoint. PSA50 Response to BAT was 30% in patient's post-enzalutamide and 18% post-abiraterone, FIG. 6B. Shah et al., 2004. […] Overall duration of response to BAT and duration of response to re-exposure was longer in the post-enzalutamide vs. post-abiraterone cohort. The PSA50 response to re-exposure to enzalutamide was 71% vs. only 21% for patients re-exposed to abiraterone, FIG. 6B. Shah et al., 2004. A third cohort was later added (Cohort C) for men progressing on ADT alone. Overall, 90 men were treated on this study over a 4-year period (2014-2018).

[2] = tested on: metastatic castration-resistant prostate cancer; conditions: cited from earlier work
CRPC [3] = assay: Post hoc analysis of PSA response to subsequent hormonal therapies post-BAT (pilot study); type: in vivo, human; conditions: for patients with a PSA decline on second line therapy: after return to castrate testosterone levels post-BAT; for Maximum PSA decline upon secondary HT initiation (%): per subject, secondary HT received post-study after return to castrate T-levels post-BAT; for PSA decline upon re-challenge: subjects who had previously progressed on the same agent
Description: As part of the aforementioned pilot study, a post hoc exploratory analysis on the effect of BAT on subsequent hormonal therapies was performed. […] All of the patients had received at least one anti-androgen prior to starting the study, Table 2. PSA response to secondary hormonal therapy after return to castrate T-levels post-BAT.

LNCaP = assay: Cell death, trypan blue exclusion assay; type: cell-based, human; conditions: ferrostatin-1 in combination with R1881
Description: Cells were stained with 0.4% trypan blue (Sigma) and incubated for 2-3 min at room temperature to allow dead cells to take up the blue stain. Cell viability was measured using an automated cell counter, Cellometer, (Nexcelom). Each experiment was repeated at least three times. Dead cells were calculated from subtracting the percentage of viable cells from 100. Mean percentage of dead cells was plotted on histograms.

ferritin = assay: Ferritin level by western blot; type: cell-based, human; conditions: LNCaP cells, 10 μM with 10 nM R1881
Description: Cell lysates were prepared either in 1× denaturing lysis buffer (Cell Signaling #9803) or non-denaturing lysis buffer (50 mM HEPES pH 7.4, 150 mM NaCl, 5 mM EDTA, 10% glycerol, 1% Nonidet P-40, and supplemented with phosphatase and protease inhibitors). For denaturing gels, lysates were mixed with Laemmli buffer containing β-mercaptoethanol, boiled for 5 mins and stored at −80° C. until use. Native lysates were mixed with native loading buffer (BioRad), and semi-native lysates were mixed with Laemmli buffer without beta-mercaptoethanol and stored at −80° C. without boiling. Native gels were resolved as described previously, Robitaille et al., 2016; denaturing and semi-native gels were resolved on 4-15% precast polyacrylamide gels (BioRad) followed by transfer to PVDF membrane. Membranes were blocked in 5% nonfat milk in wash buffer (Tris-buffered saline+0.1% Tween-20). After blocking, immunoblotting was performed with primary antibodies overnight at 4° C., followed by incubation with HRP-conjugated secondary antibodies for 1 h at room temperature. Blots were analyzed using the chemiluminescence method. Blots were developed using ECL Western blot detection reagent (GE Healthcare) for highly expressed proteins and Super Signal West Femto (Thermo Fisher) reagent for low expression proteins. Each experiment was repeated at least two to three times.

CRPC [4] = assay: Pilot study of BAT plus etoposide in men with CRPC; type: in vivo, human
Description: Based on the preclinical results and potential mechanisms for growth inhibition that include androgen-induced double strand breaks and stabilization of AR preventing relicensing, a pilot study was conducted to evaluate the efficacy and safety of pharmacologic doses of testosterone to produce high dose testosterone levels in conjunction with oral etoposide in chronically castrated men with rising PSA and CRPC, FIG. 4A. Patients who had been continuously castrate for more than one year with minimal metastatic disease burden (≤5 total bone metastases and ≤10 total sites of metastases) and/or rising PSA were eligible, FIG. 4B. To achieve rapid cycling between high dose and near castrate serum testosterone (i.e., BAT) patients received intramuscular injection of 400 mg testosterone cypionate every 28 days. For the first 3 cycles of therapy patients received BAT plus oral etoposide 100 mg po/day days 1-14 of a 28-day cycle. After 3 cycles PSA response and objective response were assessed. Those patients with a PSA that was declining from peak levels and no objective evidence of disease progression or worsening pain were continued on therapy. Given the toxicity associated with etoposide and the lack of clinical response in an earlier trial, Hussain et al., 1994, patients who responding after 3 cycles of testosterone plus etoposide were continued on testosterone alone based on protocol amendment.

LNCaP/A-xenografts = assay: LNCaP xenografts in castrated mice with testosterone implants; type: in vivo
From the text: FIG. 3A and FIG. 3B show castrated NOG mice inoculated with LNCaP/A-cells were either exposed to BAT therapy (via an implanted testosterone filled capsule that was placed and removed at two-week intervals) or left in a permanently castrate state (diamond versus box). (FIG. 3A) Evaluation of indicated parameters in LNCaP/A-cells growing in castrate mice vs. castrate mice supplemented with subcutaneous testosterone-filled silastic implants; (FIG. 3B) Immunohistochemical staining for AR in harvested LNCaP/A-xenografts growing in castrate vs. castrate+T-pelleted mice. Blue arrows indicate mitotic figures;
A mechanism for growth inhibition by testosterone in CRPC cells has been recently explored. Beer et al., 2014; Litvinov et al., 2006; Vander Griend et al., 2007. These studies document that the increase in AR expression observed in these cells in the low testosterone environment creates a unique therapeutic vulnerability to selectively kill CRPCs. This observation is based on the fact that AR is involved in DNA relicensing and DNA replication AR must degraded each cell cycle for proper relicensing to occur. Overstabilization of the increased levels of AR observed in CRPC with high dose testosterone prevents complete degradation of AR via the proteasome during mitosis. Beer et al., 2014; Litvinov et al., 2006; Vander Griend et al., 2007. […] Beer et al., 2014. […] In xenografts treated with high dose testosterone, however, the Cell Death Index was approximately 3-fold higher. Beer et al., 2014. More strikingly, the percent of cells staining positive for AR in mitosis was approximately 10-fold higher in cells exposed to high dose testosterone vs. castrate only animals, FIG. 3b.

[5] = tested on: advanced prostatic carcinoma; conditions: cited from earlier work
[6] = cited from earlier work
early CRPC = conditions: cited from earlier work
CRPC [7] = conditions: cited from earlier work
mCPRC = conditions: 258 patients previously treated with docetaxel and one or more hormonal therapies; cited from earlier work

In the case of `CC(=O)O[C@H]1CC[C@@]2(C)C(=CC[C@@H]3[C@@H]2CC[C@]2(C)C(c4cccnc4)=CC[C@@H]32)C1` [abiraterone, abiraterone acetate], the “PSA50 response to re-exposure post-BAT” value (CRPC [1]) is listed as 21%, the “PFS (median), clinical/radiographic” value ([2]; AR-V7-negative patients) is listed as “not reached” and the PSA response rate ([2]; AR-V7-negative patients) is listed as 68.0%. For the same molecule, the “PSA-PFS (median)” value ([2]; AR-V7-negative patients) was “not reached”, the “PFS (median), clinical/radiographic” value ([2]; AR-V7-positive patients) was 2.3 months and the PSA response rate ([2]; AR-V7-positive patients) was 0%. For the same molecule, the “PSA-PFS (median)” value ([2]; AR-V7-positive patients) was 1.3 months, the “patients with a PSA decline on second line therapy” value (shortened to “patients with a PSA decline”) (CRPC [3]) was 4/4 and the “Maximum PSA decline upon secondary HT initiation (%)” value (CRPC [3]) was −94.2% and −92.7% and −88.1% and −63.8%. For the same molecule, the “patients with >50% PSA decline on second line therapy” value (CRPC [3]; post-BAT) was “Four of 4”.

In the case of `CC(O)(CS(=O)(=O)c1ccc(F)cc1)C(=O)Nc1ccc(C#N)c(C(F)(F)F)c1` (centres unmarked) [bicalutamide], the “patients with a PSA decline” value (CRPC [3]) is reported as 1/1, the “Maximum PSA decline upon secondary HT initiation (%)” value (CRPC [3]) is reported as −30.8% and the “PSA decline upon re-challenge” value (CRPC [3]) is reported as 30.9%.

In the case of `CCOC(=O)c1ccc(NC2CCCCC2)c(N)c1` [ferrostatin-1], the “SupraT induced cell death” value (LNCaP) is reported as “abrogated cell death”.

In the case of `CCN(CCO)CCCC(C)Nc1ccnc2cc(Cl)ccc12` (centres unmarked) [hydroxychloroquine], the “degradation of ferritin by SupraT” value (ferritin) is reported as “prevented the degradation of ferritin by SupraT”.

In the case of `CC1(C)NC(=O)N(c2ccc([N+](=O)[O-])c(C(F)(F)F)c2)C1=O` [nilutamide], the “patients with a PSA decline” value (CRPC [3]) is reported as 1/1, the “Maximum PSA decline upon secondary HT initiation (%)” value (CRPC [3]) is reported as −44.3% and the “PSA decline upon re-challenge” value (CRPC [3]) is reported as 44.3%.

For `C[C@]12CC[C@H]3[C@@H](CCC4=CC(=O)CC[C@@]43C)[C@@H]1CC[C@@H]2OC(=O)CCC1CCCC1` [testosterone cypionate], the “patients with a decline in PSA from baseline value” (CRPC [4]; 400 mg IM every 28 days, oral etoposide in first 3 cycles) was “Seven of fourteen”, the “patients developing new bone metastases” value (CRPC [4]; completing 3 months of therapy) was “None of the 14 patients” and the “median time to PSA progression” value (CRPC [4]; seven patients with PSA decline, range 95 to 454 days) was 221 days. The “complete response (CR)” value (CRPC [4]; ten evaluable subjects) was 10%, the “partial responses (PRs)” value (CRPC [4]; ten evaluable subjects) was 40% and the “progressive disease (PD), RECIST-evaluable soft tissue metastases” value (CRPC [4]; ten evaluable subjects) was 20%. The stable disease (CRPC [4]; ten evaluable subjects, median follow up 91 days) was 30%.

For `C[C@]12CC[C@H]3[C@@H](CCC4=CC(=O)CC[C@@]43C)[C@@H]1CC[C@@H]2O` [testosterone], the “Cell Death Index, increase vs castrate” value (LNCaP/A-xenografts; high dose testosterone vs castrate only) was “approximately 3 fold”, the “percent of cells staining positive for AR in mitosis, increase vs castrate” value (LNCaP/A-xenografts; high dose testosterone vs castrate only animals) was “approximately 10 fold” and the xenograft growth (LNCaP/A-xenografts; testosterone implants, high dose serum T-levels vs castrate only) was “significant growth inhibition”. The “patients with subjective improvement” value ([5]; long-term castrate group, testosterone for at least one month) was 4 of 5 and the “men with acid phosphatase decline” value ([5]; longer course of testosterone) was 2/5.

For `C[C@]12CC[C@H]3[C@@H](CCC4=CC(=O)CC[C@@]43C)[C@@H]1CC[C@@H]2O` [transdermal testosterone, testosterone], the “median concentration of testosterone” value ([6]; 2.5 mg/day transdermal) is given as 305 ng/dL, the “median concentration of testosterone” value ([6]; 5.0 mg/day transdermal) is given as 308 ng/dL and the “median concentration of testosterone” value ([6]; 7.5 mg/day transdermal) is given as 297 ng/dL. For the same molecule, the “patients with a decrease in PSA” value (early CRPC; 15 men, 2.5-7.5 mg/day) was 20%, the “largest decrease in PSA” value (early CRPC; in vivo) was 43% and the toxicities (early CRPC; in vivo) was “no grade 3 or 4 toxicities were observed with the exception of one person who was taken off study at week 53 for grade 4 cardiac toxicity”. The toxicities (CRPC [7]; 7.5 mg/day, 12 patients) was “no grade 3 or 4 toxicities and no pain flares”, the objective responses (CRPC [7]; 7.5 mg/day) was “No objective responses” and the “patients with >50% PSA decline” value (CRPC [7]; of 12 patients) was “one”. The “patients with at least 20% PSA declines” value (CRPC [7]; of 12 patients) was “Four”.

In the case of Pembrolizumab: anti-PD1/PDL1 antibody, the Objective response (mCPRC) is given as under 5%.
